Experimental data taken from patent publication US20230242551A1, “ISOTOPE-SUBSTITUTED SPIRO AROMATIC RING COMPOUND AND APPLICATION THEREOF” (ETERN BIOPHARMA (SHANGHAI) CO., LTD., priority 2020, published 2023).

Columns and labels:
[1] = Liver microsomal metabolic stability test (rat); assay type: in vitro ADME; conditions: NADPH, 37° C.
Protocol: (§1) 1) Preparation of stock and working solutions of the compound: An appropriate amount of the compound was weighed and dissolved in DMSO to give a 10 mM stock solution, and the stock solution was further diluted with ACN to give a 100 µM working solution.
(§2) 73.21 g of dipotassium hydrogen phosphate trihydrate and 10.78 g of potassium dihydrogen phosphate were dissolved in 4000 mL of ultrapure water. The pH of the solution was adjusted to 7.40 ± 0.10 with 10% phosphoric acid or 1 M potassium hydroxide and the final concentration was 100 mM.
(§3) NADPH was weighed and dissolved in the phosphate buffer solution to obtain a 10 mM solution.
(§4) 445 µL of human/rat liver microsomal working solution (MWS) was added to the incubation sample plate, pre-incubated at 37° C. for 10 min, and then fully mixed after the addition of 5 µL of working solution of positive control or the compound to be tested.
(§5) 54 µL of the above intermediate working solution was transferred to the zero-time sample plate (T0), then added with 180 µL of ACN solution containing 200 ng/mL tolubutamide and labetalol (internal standard) to precipitate the protein, and finally added with 6 µL of NADPH working solution.
(§6) 44 µL of NADPH working solution was added to 396 µL of microsomal working solution containing positive control or the compound to be tested (remaining solution after the operation of steps (1) and (2)) and incubated at 37° C. At the time points of 5, 15, 30, 45, and 60 min, 60 uL of incubation solution was taken and added to 180 µL of ACN solution containing 200 ng/mL of tolubutamide and labetalol (internal standard) to precipitate the protein.
(§7) Centrifuged collected supernatants were analyzed with LC-MS/MS after appropriate dilution.
(§8) The peak area ratio of the analyte to the internal standard was used to calculate the relative percentage content of the compound after incubation and to perform exponential function fitting. The calculation formula was as follows: […]
(§9) wherein k was the rate constant obtained by linear regression taking the concentration logarithm as the ordinate and the incubation time as the absciss.
(§10) wherein CLint was the Intrinsic clearance.

[2] = Liver microsomal metabolic stability test (human); assay type: in vitro ADME; conditions: NADPH, 37° C.; for half-life at 1 µM / microsomal CLint at 1 µM: pH 7.4; for half-life at 1 µM: read-out: Human hepatic microsomal metabolic half-life; for microsomal CLint at 1 µM: read-out: Intrinsic clearance of human hepatic microsomes in body
Protocol: as §1
Each positive control standard was dissolved separately with DMSO to obtain a 10 mM stock solution and further diluted with ACN to obtain a 100 µM working solution.
as §2
Human liver microsomes (20 mg/mL) were diluted with the phosphate buffer solution to obtain 0.56 mg/mL of a liver microsomal working solution.
as §3
1) Preparation of Blank: 54 µL of human liver microsomal working solution was transferred to a blank sample plate, then added with 6 µL of NADPH working solution, and finally added with 180 µL of ACN solution containing 200 ng/mL of tolbutamide and labetalol (internal standard) to precipitate the protein.
445 µL of human liver microsomal working solution (MWS) was added to the cofactor-free incubation sample plate, pre-incubated at 37° C. for 10 min, and then fully mixed after the addition of 5 µL of working solution of positive control or the compound to be tested.
50 µL of phosphate buffer solution was added to the above incubation sample plate, fully mixed and incubated at 37° C. for 60 min.
After the incubation is complete, 60 µL of incubation solution was taken into a pellet plate, and then added with 180 µL of ACN solution containing 200 ng/mL of tolbutamide and labetalol (internal standard) to precipitate the protein.
as §4, §5, §6, §7, §8, §9, §10

[3] = human liver microsomes, 0-60 min

Row | half-life at 1 µM ([1]; pH 7.4, rat liver microsomes, 0-60 min, read-out: Rat hepatic microsomal metabolic half-life) | microsomal CLint at 1 µM ([1]; pH 7.4, rat liver microsomes, read-out: Intrinsic clearance of rat hepatic microsomes in body) | half-life at 1 µM [2, 3] | microsomal CLint at 1 µM ([2]; human liver microsomes) | Compound | Intrinsic clearance of rat hepatic microsomes in body [1] | Rat hepatic microsomal metabolic half-life ([1]; rat liver microsomes, 0-60 min) | Intrinsic clearance of human hepatic microsomes in body [2] | Human hepatic microsomal metabolic half-life [2, 3]
1 | 2.03 h | 11.4 µL/min/mg | 1.2 h | 19 µL/min/mg | [2H][C@@]1(N)c2cccnc2CC12CCN(c1ncc(Sc3ccnc(N)c3Cl)c3nccn13)CC2 [Compound 10] | – | – | – | –
2 | – | – | – | – | Nc1nccc(Sc2cnc(N3CCC4(CC3)Cc3ncccc3[C@H]4N)n3ccnc23)c1Cl [Compound 1] | 19 µL/min/mg | 1.17 h | 26 µL/min/mg | 0.9 h
3 | – | – | 1.28 h | 18 µL/min/mg | [2H]C1([2H])c2ncccc2[C@@]([2H])(N)C12CCN(c1ncc(Sc3ccnc(N)c3Cl)c3nccn13)CC2 [Compound 12] | – | – | – | –
